Results taken from patent US6150379A, “Compounds and compositions as anticoagulants” (Axys Pharmaceuticals, Inc., priority 1998, dated 2000).

Target: human Factor Xa (Homo sapiens, UniProt P00742)
Assay: In Vitro Enzyme Inhibitor Assay (Factor Xa inhibitory activity)
Format: biochemical
Settings: human Factor Xa 0.5-5 nM, pH 8, 150 μM zinc chloride, 1 hour preincubation at room temperature, substrate MesOC-Norleu-Gly-Arg-pNA; read-out: Apparent inhibition constants (Ki)
Experimental: The following represents an assay for determining the Factor Xa inhibitory activity of compounds of Formula I.
Apparent inhibition constants (Ki) were calculated from the enzyme progress curves using standard mathematical models.

Sequence of human Factor Xa (P00742 235-488 limits assumed): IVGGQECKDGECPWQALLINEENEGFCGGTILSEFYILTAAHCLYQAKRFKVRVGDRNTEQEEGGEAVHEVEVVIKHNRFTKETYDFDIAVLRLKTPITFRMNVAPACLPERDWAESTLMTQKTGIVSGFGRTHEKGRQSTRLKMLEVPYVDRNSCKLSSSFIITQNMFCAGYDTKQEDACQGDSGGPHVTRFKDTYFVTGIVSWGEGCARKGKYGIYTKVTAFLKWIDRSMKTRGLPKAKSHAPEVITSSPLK
Sequence of human Factor Xa (P00742 41-179 partner limits assumed): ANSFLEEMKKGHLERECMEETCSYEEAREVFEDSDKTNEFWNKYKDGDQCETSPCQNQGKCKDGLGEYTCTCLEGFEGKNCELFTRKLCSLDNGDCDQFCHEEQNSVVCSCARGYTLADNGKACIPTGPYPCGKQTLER

| Compound | Ki [nM] |
| --- | --- |
| 6-(5-amidino-1H-benzimidazol-2-yl)-N-(2-morpholin-4-ylethyl)pyridine-5-carboxamide [Compound 69] | 40 |
| 6-(5-amidino-1H-benzimidazol-2-yl)-N-[2-(3,4-dichlorophenyl)ethyl]pyridine- 5-carboxamide [Compound 88] | 6 |
| 6-(5-amidino-1H-benzimidazol-2-yl)-N-[2-(4-methylphenyl)ethyl]pyridine-5-carboxamide [Compound 86] | 8 |
| CCCCc1ccc(-c2nc3cc(C(=N)N)ccc3[nH]2)nc1 [Compound 1] | 3 |
| Cc1c(-c2nc3cc(C(=N)N)ccc3[nH]2)ncn1Cc1ccccc1 [Compound 16, 2-(5-methyl-1-benzyl-1H-imidazol-4-yl)-1H-benzimidazole-5-carboxamidine] | 8 |
| N=C(N)c1ccc2[nH]c(-c3nccn3Cc3ccccc3)nc2c1 [Compound 17, 2-(1-benzyl-1H-imidazol-2-yl)-1H-benzimidazole-5-carboxamidine] | 4 |
| CCCn1cnc(-c2nc3cc(C(=N)N)ccc3[nH]2)c1C [Compound 20, 2-(5-methyl-1-propyl-1H-imidazol-4-yl)-1H-benzimidazole-5-carboxamidine] | 7 |
| CCCCn1ccnc1-c1nc2cc(C(=N)N)ccc2[nH]1 [Compound 27, 2-(1-butyl-1H-imidazol-2-yl)-1H-benzimidazole-5-carboxamidine] | 5 |
| CCOC(=O)Cn1ccnc1-c1nc2cc(C(=N)N)ccc2[nH]1 [Compound 33, ethyl 2-(5-amidino-1H-benzimidazol-2-yl)imidazol-1-ylacetate] | 5 |
| Cc1c(-c2nc3cc(C(=N)N)ccc3[nH]2)ncn1CCCN1C(=O)c2ccccc2C1=O [Compound 36, 2-{1-[3-(1,3-dioxo-1,3-dihydroisoindol-2-yl)propyl]-5-methyl-1H-imidazol-4-yl}-1H-benzimidazole-5-carboxamidine] | 5 |
| N=C(N)c1ccc2[nH]c(-c3nccn3CCCCN3C(=O)c4ccccc4C3=O)nc2c1 [Compound 39, 2-{1-[4-(1,3-dioxo-1,3-dihydroisoindol-2-yl)butyl]-1H-imidazol-2-yl}-1H-benzimidazole-5-carboxamidine] | 6 |
| COc1ccc(CCNC(=O)c2ccnc(-c3nc4cc(C(=N)N)ccc4[nH]3)c2)cc1 [Compound 50, 6-(5-amidino-1H-benzimidazol-2-yl)-N-[2-(4-methoxyphenyl)ethyl]pyridine-4-carboxamide] | 10 |
| COc1ccc(CCNC(=O)c2ccc(-c3nc4cc(C(=N)N)ccc4[nH]3)nc2)cc1Br [Compound 57] | 2 |
| N=C(N)c1ccc2[nH]c(-c3nccn3CC(=O)NCCc3ccc(Cl)cc3)nc2c1 [Compound 90, 2-(5-amidino-1H-benzimidazol-2-yl)imidazol-1-yl-N-[2-(4-chlorophenyl)ethyl]acetamide] | 3 |
| N=C(N)c1ccc2[nH]c(-c3nccn3CC(=O)NCCc3ccc(O)cc3)nc2c1 [Compound 95, 2-(5-amidino-1H-benzimidazol-2-yl)imidazol-1-yl-N-[2-(4-hydroxyphenyl)ethyl]acetamide] | 6 |
| N=C(N)c1ccc2[nH]c(-c3nccn3CC(=O)NCCc3cccc4ccccc34)nc2c1 [Compound 96, 2-(5-amidino-1H-benzimidazol-2-yl)imidazol-1-yl-N-(2-naphth-1-ylethyl)acetamide] | 30 |
| N=C(N)c1ccc2[nH]c(-c3nccn3CCCC(=O)N3CCOCC3)nc2c1 [Compound 98, 2-[1-(3-morpholin-4-ylcarbonylpropyl)-1H-imidazol-2-yl]-1H-benzimidazole-5-carboxamidine] | 2 |
| N=C(N)c1ccc2[nH]c(-c3nccn3CCCC(=O)NCCc3ccc(Cl)cc3)nc2c1 [Compound 100, 4-[2-(5-amidino-1H-benzimidazol-2-yl)imidazol-1-yl]-N-[2-(4-chlorophenyl)ethyl]butyramide] | 6 |
